ChEMBL document CHEMBL5543066, “Dual COX-2/15-LOX inhibitors: A new avenue in the prevention of cancer” (Eur J Med Chem, 2023)

Tests used:
Rattus norvegicus [1] = assay: Anti-inflammatory activity against carrageenan-induced paw edema in Wistar albino rat assessed as inhibition of paw edema at 50 mg/kg, sc administered for 14 days relative to control; assay type: functional; design: scale not given: the % may be the effect or the level left; conditions: time 14 day
[2] = Inhibition of human recombinant sPLA2-V
[3] = molecular target: Prostaglandin G/H synthase 1 (Homo sapiens) (UniProt P23219); assay: Inhibition of human COX-1 at 10 uM relative to control
Chain of Prostaglandin G/H synthase 1 (Homo sapiens) (P23219 whole entry): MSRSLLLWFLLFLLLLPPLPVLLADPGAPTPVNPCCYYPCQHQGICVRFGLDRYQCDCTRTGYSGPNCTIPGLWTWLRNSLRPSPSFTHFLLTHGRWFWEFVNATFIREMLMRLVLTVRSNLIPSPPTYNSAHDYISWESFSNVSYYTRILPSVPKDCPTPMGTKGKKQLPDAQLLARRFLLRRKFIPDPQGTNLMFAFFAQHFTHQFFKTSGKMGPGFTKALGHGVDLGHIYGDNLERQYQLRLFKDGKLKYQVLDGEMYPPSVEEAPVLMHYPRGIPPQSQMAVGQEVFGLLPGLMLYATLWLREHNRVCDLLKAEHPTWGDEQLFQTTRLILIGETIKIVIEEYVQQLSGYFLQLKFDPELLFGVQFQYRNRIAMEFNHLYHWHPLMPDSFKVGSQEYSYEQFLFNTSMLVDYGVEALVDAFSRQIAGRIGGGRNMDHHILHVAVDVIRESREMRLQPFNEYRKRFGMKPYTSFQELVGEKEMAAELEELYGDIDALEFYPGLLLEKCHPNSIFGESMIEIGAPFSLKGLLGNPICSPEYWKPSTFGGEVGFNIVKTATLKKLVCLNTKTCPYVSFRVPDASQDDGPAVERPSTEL

PC-3 = assay: Antiproliferative activity against human PC-3 cells assessed as reduction in cell growth incubated for 72 hrs by MTT assay; assay type: functional, cell-based; conditions: PC-3, 72 h
HepG2 = assay: Anticancer activity against human HepG2 cells assessed as cell viability measured after 72 hrs by MTT assay; assay type: functional, cell-based; conditions: HepG2, 72 h
MCF7 = assay: Antitumor activity against human MCF7 cells assessed as reduction in cell viability measured for 72 hrs by MTT assay; assay type: functional, cell-based; conditions: MCF7, 72 h
Caco-2 = assay: Antiproliferative activity against human Caco-2 cells assessed as reduction in cell growth incubated for 72 hrs by MTT assay; assay type: functional, cell-based; conditions: Caco-2, 72 h
A549 = assay: Anticancer activity against human A549 cells assessed as reduction in cell viability measured for 72 hrs by MTT assay; assay type: functional, cell-based; conditions: A549, 72 h
[4] = Inhibition of soybean 15-LOX by spectrophotometric method; design: species or system Glycine max
[5] = Inhibition of soybean lipoxygenase; design: species or system Glycine max
[6] = Inhibition of soybean 15-LOX colorimetric assay; design: species or system Glycine max
Carbonic anhydrase 2 = Carbonic anhydrase 2 (Homo sapiens, UniProt P00918); assay: Inhibition of recombinant human carbonic anhydrase II incubated for 30 mins by spectrophotometric analysis
[7] = molecular target: T1, Prostaglandin G/H synthase 2 (Homo sapiens, UniProt P35354); assay: Inhibition of human COX-2
T1 sequence (P35354 whole entry): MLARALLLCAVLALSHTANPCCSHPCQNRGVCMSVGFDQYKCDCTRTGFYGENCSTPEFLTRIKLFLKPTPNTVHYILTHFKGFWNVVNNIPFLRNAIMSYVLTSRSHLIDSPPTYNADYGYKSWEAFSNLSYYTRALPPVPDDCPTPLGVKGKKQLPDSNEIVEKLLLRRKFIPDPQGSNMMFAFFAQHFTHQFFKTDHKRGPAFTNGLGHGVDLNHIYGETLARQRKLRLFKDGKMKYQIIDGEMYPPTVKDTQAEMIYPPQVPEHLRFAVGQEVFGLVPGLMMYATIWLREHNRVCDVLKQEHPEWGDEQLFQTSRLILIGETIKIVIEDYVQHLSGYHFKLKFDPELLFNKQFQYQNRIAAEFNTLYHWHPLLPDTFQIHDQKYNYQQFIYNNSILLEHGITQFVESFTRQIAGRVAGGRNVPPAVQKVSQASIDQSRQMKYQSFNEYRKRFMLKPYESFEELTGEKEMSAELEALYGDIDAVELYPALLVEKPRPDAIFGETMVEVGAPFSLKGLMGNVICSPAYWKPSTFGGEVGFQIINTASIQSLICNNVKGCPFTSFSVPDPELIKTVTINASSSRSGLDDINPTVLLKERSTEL

[8] = molecular target: T2, Polyunsaturated fatty acid 5-lipoxygenase (Homo sapiens, UniProt P09917); assay: Inhibition of 5-LOX in human PMNL cells; assay type: cell-based
T2 sequence (P09917 whole entry): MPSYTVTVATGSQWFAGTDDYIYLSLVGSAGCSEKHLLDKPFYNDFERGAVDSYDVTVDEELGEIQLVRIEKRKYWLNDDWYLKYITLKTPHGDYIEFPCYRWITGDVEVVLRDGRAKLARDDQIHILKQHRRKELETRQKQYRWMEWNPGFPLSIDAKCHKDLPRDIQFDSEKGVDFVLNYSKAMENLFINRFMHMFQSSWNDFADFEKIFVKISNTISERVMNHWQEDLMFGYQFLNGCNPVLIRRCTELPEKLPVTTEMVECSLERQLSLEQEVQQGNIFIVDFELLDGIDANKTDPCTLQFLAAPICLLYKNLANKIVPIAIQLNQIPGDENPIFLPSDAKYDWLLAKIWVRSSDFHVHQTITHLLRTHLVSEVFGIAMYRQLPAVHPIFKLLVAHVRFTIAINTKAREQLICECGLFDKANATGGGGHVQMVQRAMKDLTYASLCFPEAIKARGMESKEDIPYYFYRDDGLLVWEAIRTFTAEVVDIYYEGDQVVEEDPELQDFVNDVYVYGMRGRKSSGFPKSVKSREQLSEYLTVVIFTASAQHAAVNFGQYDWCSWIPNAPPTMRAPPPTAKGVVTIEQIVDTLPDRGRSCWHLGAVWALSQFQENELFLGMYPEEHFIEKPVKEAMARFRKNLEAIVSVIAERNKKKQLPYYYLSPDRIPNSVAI

[9] = Selectivity ratio of IC50 for ovine COX-1 to IC50 for human COX-2
[10] = molecular target: T3, Prostaglandin G/H synthase 1 (Ovis aries, UniProt P05979); assay: Inhibition of ovine COX-1
T3 sequence (P05979 whole entry): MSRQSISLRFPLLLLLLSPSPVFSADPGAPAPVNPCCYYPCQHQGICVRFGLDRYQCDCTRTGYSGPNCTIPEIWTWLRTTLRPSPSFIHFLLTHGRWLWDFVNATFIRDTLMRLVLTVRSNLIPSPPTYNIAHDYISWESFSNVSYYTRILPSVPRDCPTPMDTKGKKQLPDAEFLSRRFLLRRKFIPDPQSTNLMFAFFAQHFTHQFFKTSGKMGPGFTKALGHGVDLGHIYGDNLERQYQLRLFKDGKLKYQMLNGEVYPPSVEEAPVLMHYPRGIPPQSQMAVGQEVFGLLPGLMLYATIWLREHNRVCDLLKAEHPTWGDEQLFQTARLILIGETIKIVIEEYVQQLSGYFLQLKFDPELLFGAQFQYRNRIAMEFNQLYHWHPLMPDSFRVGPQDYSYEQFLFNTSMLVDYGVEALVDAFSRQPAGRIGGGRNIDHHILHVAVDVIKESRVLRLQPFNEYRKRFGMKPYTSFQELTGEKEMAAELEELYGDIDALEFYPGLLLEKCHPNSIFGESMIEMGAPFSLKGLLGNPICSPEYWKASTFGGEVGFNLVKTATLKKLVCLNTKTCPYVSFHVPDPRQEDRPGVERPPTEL

[11] = molecular target: T1, Prostaglandin G/H synthase 2; assay: Inhibition of COX-2 (unknown origin)
[12] = Inhibition of soybean 15-LOX; design: species or system Glycine max
RAW264.7 [13] = assay: Anti-inflammatory activity against mouse RAW264.7 cells assessed as inhibition of LPS-induced IL-6 production at 10 uM pre-incubated with LPS-stimulation for 2 hrs followed by compound addition and measured after 22 hrs by ELISA analysis relative to control; assay type: functional; design: scale not given: the % may be the effect or the level left; conditions: time 24 hrs
RAW264.7 [14] = assay: Anti-inflammatory activity against mouse RAW264.7 cells assessed as inhibition of LPS-induced TNF-alpha production at 10 uM pre-incubated with LPS-stimulation for 2 hrs followed by compound addition and measured after 22 hrs by ELISA analysis relative to control; assay type: functional; design: scale not given: the % may be the effect or the level left; conditions: time 24 hrs
Rattus norvegicus [15] = assay: Anti-inflammatory activity against carrageenan-induced paw edema in Wistar albino rat assessed as inhibition of paw edema; assay type: functional
[16] = molecular target: T1, Prostaglandin G/H synthase 2; assay: Inhibition of COX-2 (unknown origin) by Enzyme immune assay
[17] = molecular target: T4, Seed linoleate 13S-lipoxygenase-1 (Glycine max, UniProt P08170); assay: Inhibition of soybean LOX-1 using linoleic acid as substrate
T4 sequence (P08170 whole entry): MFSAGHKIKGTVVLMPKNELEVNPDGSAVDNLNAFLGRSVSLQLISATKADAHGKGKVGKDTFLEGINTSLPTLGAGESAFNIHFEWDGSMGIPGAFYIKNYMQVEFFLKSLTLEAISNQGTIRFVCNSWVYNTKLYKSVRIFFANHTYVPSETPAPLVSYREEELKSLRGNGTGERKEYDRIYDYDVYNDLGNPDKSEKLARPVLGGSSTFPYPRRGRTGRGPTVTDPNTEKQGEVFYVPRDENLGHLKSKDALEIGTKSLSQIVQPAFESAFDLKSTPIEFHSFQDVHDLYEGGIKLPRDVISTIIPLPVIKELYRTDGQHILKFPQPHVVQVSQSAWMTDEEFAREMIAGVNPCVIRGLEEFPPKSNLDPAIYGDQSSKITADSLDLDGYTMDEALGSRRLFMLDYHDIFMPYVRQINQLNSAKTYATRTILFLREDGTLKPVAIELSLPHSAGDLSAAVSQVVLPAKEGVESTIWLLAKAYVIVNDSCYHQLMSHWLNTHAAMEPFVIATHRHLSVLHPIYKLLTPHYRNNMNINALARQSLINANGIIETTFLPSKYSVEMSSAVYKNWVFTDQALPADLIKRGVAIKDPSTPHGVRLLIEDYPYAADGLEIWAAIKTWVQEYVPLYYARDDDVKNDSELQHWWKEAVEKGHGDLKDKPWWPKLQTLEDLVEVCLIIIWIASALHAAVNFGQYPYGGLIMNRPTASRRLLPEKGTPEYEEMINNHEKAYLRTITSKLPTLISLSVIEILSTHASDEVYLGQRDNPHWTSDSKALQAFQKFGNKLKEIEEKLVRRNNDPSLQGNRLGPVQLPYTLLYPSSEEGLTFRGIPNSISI

Which results are given for `CCOc1cc(C)nc2c(C#N)c(Nc3cc(OC)ccn3)nn12`?
Activity (Rattus norvegicus [1]): 46%; IC50 [2]: 1.7 µM

For `COc1ccc(-c2nnc(N/N=C/c3ccc4c(c3)OCO4)nc2-c2ccc(OC)cc2)cc1`, which inhibition [3] is on record?
Its inhibition is 50%.

Which results are given for `CCn1c(-n2cc(/C=N/N=C3\SCC(=O)N3c3ccccc3)c(-c3ccccc3)n2)nc2c1c(=O)n(C)c(=O)n2C`?
IC50 (PC-3): 18.5 µM; IC50 (HepG2): 18.5 µM; IC50 (MCF7): 18.5 µM; IC50 (Caco-2): 18.5 µM; IC50 (A549): 18.5 µM

Which IC50 [4] does the source give for `CCOC(=O)c1sc(N/N=C/c2ccccc2)nc1C` here?
Its IC50 is 0.12 µM.

For `COc1ccc(-c2nnc(N/N=C/c3ccc(F)cc3)nc2-c2ccc(OC)cc2)cc1`, which IC50 [5] is on record?
The IC50 was 124 µM.

Which Activity (Rattus norvegicus [1]) does the source give for `COc1ccnc(Nc2nn3c(C)cc(C)nc3c2C#N)c1` here?
Its Activity is 46%.

And the IC50 [6]?
Its IC50 is 5.6 µM.

Which IC50 (Carbonic anhydrase 2) does the source give for `NS(=O)(=O)c1ccc(NCCC(=O)N/N=C/c2ccc(-c3ccc(Br)s3)cc2)cc1` here?
The IC50 was 0.11 µM.

Which IC50 [7] does the source give for `O=C1c2ccccc2C(=O)N1c1nc2cc([N+](=O)[O-])ccc2n1Cc1cccc(-c2ccccc2)c1` here?
Its IC50 is 1 µM.

What about the IC50 [8] of the same molecule?
The IC50 was 0.32 µM.

What about the IC50 [5] of the same molecule?
The IC50 was 1.02 µM.

And the Ratio IC50 [9]?
The Ratio IC50 was 9.85.

And the IC50 [10]?
Its IC50 is 9.85 µM.

Which IC50 [11] does the source give for `O=C1N/C(=N\c2nnc(-c3ccc(O)cc3)s2)S/C1=C\c1ccccc1` here?
Its IC50 is 0.07 µM.

What about the IC50 [12] of the same molecule?
The IC50 was 11 µM.

What does the source list for `CCn1c(-n2cc(/C=N/N=c3\scc(-c4ccc(Br)cc4)n3-c3ccccc3)c(-c3ccccc3)n2)nc2c1c(=O)n(C)c(=O)n2C`?
IC50 (PC-3): 18.5 µM; IC50 (HepG2): 18.5 µM; IC50 (MCF7): 18.5 µM; IC50 (Caco-2): 18.5 µM; IC50 (A549): 18.5 µM

For `COc1ccnc(Nc2nn3c(SC)c(C#N)c(O)nc3c2C#N)c1`, which Activity (RAW264.7 [13]) is on record?
The Activity was 80%.

What about the Activity (Rattus norvegicus [1]) of the same molecule?
The Activity was 46%.

What about the Activity (RAW264.7 [14]) of the same molecule?
Its Activity is 89%.

And the IC50 [2]?
The IC50 was 1 µM.

What about the ED50 (Rattus norvegicus [15]) of the same molecule?
The ED50 was 35 mg/kg.

And the IC50 [16]?
The IC50 was 1.11 µM.

Which IC50 [17] does the source give for `CC(=O)c1cc2ccc(OC/C=C(\C)CC/C=C(\C)CCC=C(C)C)cc2oc1=O` here?
Its IC50 is 0.68 µM.

Which IC50 [6] does the source give for `CC(Cc1ccc(O)c(O)c1)C(C)Cc1ccc(O)c(O)c1` (centres undefined) [NORDIHYDROGUAIARETIC ACID] here?
The IC50 was 8.5 µM.

Which IC50 [4] does the source give for `CCOC(=O)c1sc(N/N=C/c2c(F)cccc2Cl)nc1C` here?
The IC50 was 0.12 µM.
